Laboratory results taken from ChEMBL document CHEMBL5614398, “A comprehensive review of new small molecule drugs approved by the FDA in 2022: Advance and prospect” (Eur J Med Chem, 2024).

Assays:
[1] = molecular target: Structural capsid protein (Human immunodeficiency virus 1, UniProt Q76129); assay: Inhibition of HIV-1 NL4-3 monomeric capsid protein
[2] = molecular target: GABA-A receptor; anion channel; assay: Binding affinity to GABAA receptor (unknown origin) assessed as inhibition constant; assay type: protein-complex assay, Homo sapiens
[3] = molecular target: Lanosterol 14-alpha demethylase (Candida albicans (strain SC5314 / ATCC MYA-2876) (Yeast), UniProt P10613); assay: Binding affinity to Candida albicans SC5314 CYP51 assessed as dissociation constant
[4] = Half life in human; assay type: ADME
[5] = Activation of Myosin ATPase activity in bovine Cardio-myofibril; set-up: species or system Bos taurus
[6] = molecular target: Tyrosine-protein kinase JAK2 (Homo sapiens, UniProt O60674); assay: Inhibition of N-terminal human recombinant JAK2 using poly(Glu,Ala,Tyr) as substrate incubated for 2 hrs in presence of ATP by luminescence method
[7] = molecular target: T1, Receptor-type tyrosine-protein kinase FLT3 (Homo sapiens, UniProt P36888); assay: Inhibition of human FLT3 (unknown origin) using poly(Glu,Tyr) as substrate incubated for 2 hrs in presence of ATP by luminescence method
T1 sequence (P36888 whole entry): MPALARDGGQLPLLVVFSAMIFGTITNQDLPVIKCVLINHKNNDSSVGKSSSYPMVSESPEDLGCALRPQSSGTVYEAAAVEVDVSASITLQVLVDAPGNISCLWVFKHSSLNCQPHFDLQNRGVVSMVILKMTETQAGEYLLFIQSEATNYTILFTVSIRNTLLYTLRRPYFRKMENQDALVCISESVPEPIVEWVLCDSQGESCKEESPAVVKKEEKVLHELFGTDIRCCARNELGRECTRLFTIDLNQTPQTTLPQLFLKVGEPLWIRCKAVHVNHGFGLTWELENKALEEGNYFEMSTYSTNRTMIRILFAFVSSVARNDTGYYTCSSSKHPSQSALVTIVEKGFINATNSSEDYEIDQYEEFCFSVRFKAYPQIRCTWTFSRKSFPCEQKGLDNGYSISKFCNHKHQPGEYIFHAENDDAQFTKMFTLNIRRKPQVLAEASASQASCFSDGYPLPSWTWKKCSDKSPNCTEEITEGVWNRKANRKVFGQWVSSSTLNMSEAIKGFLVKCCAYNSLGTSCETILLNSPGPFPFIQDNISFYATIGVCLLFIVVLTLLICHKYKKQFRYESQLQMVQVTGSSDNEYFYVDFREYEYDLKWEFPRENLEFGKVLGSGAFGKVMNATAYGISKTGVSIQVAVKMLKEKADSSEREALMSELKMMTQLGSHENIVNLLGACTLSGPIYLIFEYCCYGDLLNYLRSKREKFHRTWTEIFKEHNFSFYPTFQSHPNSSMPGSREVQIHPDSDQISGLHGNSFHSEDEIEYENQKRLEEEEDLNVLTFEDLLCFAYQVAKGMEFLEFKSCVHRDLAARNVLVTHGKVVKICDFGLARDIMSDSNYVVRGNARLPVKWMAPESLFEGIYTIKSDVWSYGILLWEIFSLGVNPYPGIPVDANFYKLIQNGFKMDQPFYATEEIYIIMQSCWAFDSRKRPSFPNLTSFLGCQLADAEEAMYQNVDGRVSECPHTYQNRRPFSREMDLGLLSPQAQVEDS

[8] = molecular target: Prostaglandin E2 receptor EP2 subtype (Homo sapiens, UniProt P43116); assay: Agonist activity at human EP2 receptor expressed in HEK293 cells; assay type: functional, cell-based
Sequence of Prostaglandin E2 receptor EP2 subtype (P43116 whole entry): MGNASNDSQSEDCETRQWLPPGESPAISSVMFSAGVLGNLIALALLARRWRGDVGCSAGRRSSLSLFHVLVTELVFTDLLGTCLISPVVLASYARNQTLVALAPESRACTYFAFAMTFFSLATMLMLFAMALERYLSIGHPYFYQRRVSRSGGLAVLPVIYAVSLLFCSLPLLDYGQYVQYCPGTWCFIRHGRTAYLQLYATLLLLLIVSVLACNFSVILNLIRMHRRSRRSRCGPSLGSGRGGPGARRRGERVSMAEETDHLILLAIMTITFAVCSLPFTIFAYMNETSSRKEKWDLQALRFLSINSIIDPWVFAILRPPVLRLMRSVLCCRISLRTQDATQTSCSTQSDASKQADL

Sequence of Structural capsid protein (Q76129 whole entry): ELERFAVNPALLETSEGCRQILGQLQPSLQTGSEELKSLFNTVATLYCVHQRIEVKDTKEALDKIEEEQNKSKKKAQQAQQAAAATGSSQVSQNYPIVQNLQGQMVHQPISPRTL
Sequence of Tyrosine-protein kinase JAK2 (O60674 whole entry): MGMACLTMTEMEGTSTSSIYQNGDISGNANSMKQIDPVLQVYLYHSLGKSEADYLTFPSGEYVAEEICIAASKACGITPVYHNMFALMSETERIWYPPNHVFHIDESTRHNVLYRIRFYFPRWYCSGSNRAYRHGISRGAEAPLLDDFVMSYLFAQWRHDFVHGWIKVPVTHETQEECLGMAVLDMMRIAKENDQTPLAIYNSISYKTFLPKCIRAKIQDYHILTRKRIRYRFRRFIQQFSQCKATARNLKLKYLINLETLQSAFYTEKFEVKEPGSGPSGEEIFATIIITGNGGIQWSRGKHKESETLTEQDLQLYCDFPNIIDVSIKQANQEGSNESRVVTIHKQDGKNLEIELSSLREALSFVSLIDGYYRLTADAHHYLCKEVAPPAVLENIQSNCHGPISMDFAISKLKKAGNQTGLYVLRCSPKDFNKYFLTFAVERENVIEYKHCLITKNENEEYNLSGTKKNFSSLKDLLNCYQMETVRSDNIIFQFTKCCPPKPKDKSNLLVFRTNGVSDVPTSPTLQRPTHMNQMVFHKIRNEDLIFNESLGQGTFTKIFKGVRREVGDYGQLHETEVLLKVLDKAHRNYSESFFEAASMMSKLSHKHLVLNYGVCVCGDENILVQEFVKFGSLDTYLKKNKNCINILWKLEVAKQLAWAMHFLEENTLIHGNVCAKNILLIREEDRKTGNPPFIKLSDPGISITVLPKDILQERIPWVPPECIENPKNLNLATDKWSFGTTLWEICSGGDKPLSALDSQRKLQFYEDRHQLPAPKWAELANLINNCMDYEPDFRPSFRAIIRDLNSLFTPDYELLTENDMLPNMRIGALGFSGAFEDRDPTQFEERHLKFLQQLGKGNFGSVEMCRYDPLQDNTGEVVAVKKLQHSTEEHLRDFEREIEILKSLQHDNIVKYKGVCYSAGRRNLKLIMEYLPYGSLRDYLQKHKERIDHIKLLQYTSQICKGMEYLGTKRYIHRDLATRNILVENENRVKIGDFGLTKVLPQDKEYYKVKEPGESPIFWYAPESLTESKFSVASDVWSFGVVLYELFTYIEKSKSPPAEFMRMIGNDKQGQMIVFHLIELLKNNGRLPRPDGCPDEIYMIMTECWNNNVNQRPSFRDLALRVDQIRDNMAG
Sequence of Lanosterol 14-alpha demethylase (P10613 whole entry): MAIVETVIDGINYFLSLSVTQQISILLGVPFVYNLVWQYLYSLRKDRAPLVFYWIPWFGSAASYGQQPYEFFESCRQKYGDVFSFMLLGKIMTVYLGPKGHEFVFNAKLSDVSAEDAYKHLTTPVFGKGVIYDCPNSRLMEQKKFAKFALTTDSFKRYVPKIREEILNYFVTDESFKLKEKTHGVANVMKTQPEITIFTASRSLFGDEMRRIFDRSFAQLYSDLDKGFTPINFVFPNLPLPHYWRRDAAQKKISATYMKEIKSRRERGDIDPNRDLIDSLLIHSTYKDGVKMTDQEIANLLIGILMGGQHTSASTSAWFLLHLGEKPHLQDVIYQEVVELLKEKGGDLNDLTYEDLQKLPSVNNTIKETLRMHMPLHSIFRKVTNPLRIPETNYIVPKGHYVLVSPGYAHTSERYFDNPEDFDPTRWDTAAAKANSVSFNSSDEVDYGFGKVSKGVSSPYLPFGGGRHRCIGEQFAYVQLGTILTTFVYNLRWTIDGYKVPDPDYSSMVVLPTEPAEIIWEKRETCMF

| SMILES | EC50 [1] | further results |
| --- | --- | --- |
| Cn1nc(N)c2cccc(-c3cccnc3[C@H](Cc3cc(F)cc(F)c3)NC(=O)Cn3nc(C(F)(F)F)c4c3C(F)(F)[C@@H]3C[C@H]43)c21 | 19 nM | – |
| CC(=O)[C@H]1CC[C@H]2[C@@H]3CC[C@H]4C[C@](C)(O)CC[C@]4(C)[C@H]3CC[C@]12C [GANAXOLONE] | – | Ki [2]: 790 nM |
| NC(=O)c1cccc(-c2cccnc2[C@H](Cc2cc(F)cc(F)c2)NC(=O)Cn2nc(C(F)(F)F)c3c2C(F)(F)[C@@H]2C[C@H]32)c1 | 167 nM | – |
| NC(=O)c1cccc(-c2cccnc2[C@H](Cc2cc(F)cc(F)c2)NC(=O)Cc2c[nH]c3ccc(O)cc23)c1 | 150 nM | – |
| O[C@@](Cn1cnnn1)(c1ccc(F)cc1F)C(F)(F)c1ccc(-c2ccc(OCC(F)(F)F)cc2)cn1 [OTESECONAZOLE] | – | Kd [3]: ≤ 39 nM |
| Cn1nc(NS(C)(=O)=O)c2c(Cl)ccc(-c3ccc(C#CC(C)(C)S(C)(=O)=O)nc3[C@H](Cc3cc(F)cc(F)c3)NC(=O)Cn3nc(C(F)(F)F)c4c3C(F)(F)[C@@H]3C[C@H]43)c21 | 0.2 nM | – |
| CC(C)(C#Cc1ccc(-c2ccc(Cl)c3c(NS(C)(=O)=O)nn(CC(F)(F)F)c23)c([C@H](Cc2cc(F)cc(F)c2)NC(=O)Cn2nc(C(F)(F)F)c3c2C(F)(F)[C@@H]2C[C@H]32)n1)S(C)(=O)=O | 0.05 nM | – |
| Cc1[nH]c2ccccc2c1CC(=O)N[C@@H](Cc1ccccc1)C(=O)N(C)c1ccccc1 | – | half-life [4]: 3 min |
| Cn1nc(NS(C)(=O)=O)c2cccc(-c3cccnc3[C@H](Cc3cc(F)cc(F)c3)NC(=O)Cn3nc(C(F)(F)F)c4c3C(F)(F)[C@@H]3C[C@H]43)c21 | 12 nM | – |
| CC(C)n1c(=O)cc(N[C@@H](C)c2ccccc2)[nH]c1=O | – | EC50 [5]: 711 nM |
| COc1cc(-c2ccnc(Nc3cccc(N(C)C)c3)n2)ccc1O | – | IC50 [6]: 23 nM; IC50 [7]: 22 nM |
| CC(C)OC(=O)CNc1cccc(CN(Cc2ccc(-n3cccn3)cc2)S(=O)(=O)c2cccnc2)n1 [OMIDENEPAG ISOPROPYL] | – | EC50 [8]: 1.1 nM |
| COc1ccc(N(C)C(=O)[C@H](Cc2ccccc2)NC(=O)Cc2c[nH]c3ccc(O)cc23)cc1 | 52 nM | – |
